Broadly, the solubility is the concentration that dissolves in the medium under given conditions. Low readings indicate little dissolved substance, high ones much dissolved substance. The IC50 is the midpoint of a concentration-inhibition curve.

The values below come from patent US9593149B2, “Amylin and calcitonin receptor agonist” (Novo Nordisk A/S, priority 2014, dated 2017).

Data set [1] in a line: Assay (IV) determination of solubility. It is filed as physicochemical. As to the method: Assay (IV)—Determination of Solubility
The mimylin peptide was dissolved in water at ˜500 nmol/ml and mixed 1:1 with a series of buffers (100 mM glycylglycine pH 3.0, 100 mM glycylglycine pH 4.0, 100 mM glycylglycine pH 5.0, 100 mM bistrispropane pH 6.0, 100 mM bistrispropane pH 6.5, 100 mM bistrispropane pH 7.0, 100 mM bistrispropane pH 7.5, 100 mM bistrispropane pH 8.0).

The target in data set [2] is T1, rat calcitonin receptor (Rattus norvegicus, UniProt P32214).
T1 construct: expressed in transfected cells; host or cells: BHK tk'ts 13 (transient, FuGENE 6)
T1 sequence (P32214 25-479 isoform P32214-2 limits assumed): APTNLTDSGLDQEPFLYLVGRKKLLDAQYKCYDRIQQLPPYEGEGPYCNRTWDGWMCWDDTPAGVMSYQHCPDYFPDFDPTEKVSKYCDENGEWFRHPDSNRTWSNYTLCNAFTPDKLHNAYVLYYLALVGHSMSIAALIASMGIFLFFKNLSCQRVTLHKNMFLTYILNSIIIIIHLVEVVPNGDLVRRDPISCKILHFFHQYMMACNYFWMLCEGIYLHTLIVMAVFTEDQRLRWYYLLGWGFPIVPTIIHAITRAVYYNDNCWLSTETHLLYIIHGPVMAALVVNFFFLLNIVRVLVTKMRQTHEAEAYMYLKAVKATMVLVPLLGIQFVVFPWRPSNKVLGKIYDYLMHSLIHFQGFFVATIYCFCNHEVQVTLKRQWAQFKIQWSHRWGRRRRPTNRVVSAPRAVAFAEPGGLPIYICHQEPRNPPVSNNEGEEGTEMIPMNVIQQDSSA
The data set is described as follows: Assay (VIII) binding to the rat calcitonin receptor. To be noted: membranes; read-out: rCT-R binding IC50. A digest of the protocol: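 Affinity given as IC50 from a one-site competition fit of bound radioactivity, counted by scintillation after cold HBSS washes and NaOH/SDS lysis. Membranes came from BHK tk'ts 13 cells transiently expressing the rat receptor; other conditions followed the human calcitonin receptor protocol.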

Structures are written as SMILES. Values after ≈ are worked out from the molar mass of the structure shown. Numbered stars: 1 amine (or outer) side, 2 acyl side, 3 side chain; on linkers, the order of the positions; unused ones are H or OH. Square brackets hold non-standard residues; d marks the D form. Peptide text beside a SMILES is read from it. * marks the point of attachment. C20 diacid = O=C(O)CCCCCCCCCCCCCCCCCCC(=O)*; C18 diacid = O=C(O)CCCCCCCCCCCCCCCCC(=O)*; γGlu = O=C(O)[C@H](CCC(=O)[*:2])N[*:1]

Turning to `CC(C)C[C@H](NC(=O)CNC(=O)[C@H](CO)NC(=O)[C@H](C)NC(=O)CC[C@H](NC(=O)CCCCCCCCCCCCCCCCCCC(=O)O)C(=O)O)C(=O)N[C@@H](CO)C(=O)N[C@H](C(=O)N[C@@H](C)C(=O)N[C@H](C(=O)N[C@@H](CC(C)C)C(=O)NCC(=O)N[C@@H](CCCNC(=N)N)C(=O)N[C@@H](CC(C)C)C(=O)N[C@@H](CO)C(=O)N[C@@H](CCC(N)=O)C(=O)N[C@@H](CCC(=O)O)C(=O)N[C@@H](CC(C)C)C(=O)N[C@@H](Cc1cnc[nH]1)C(=O)N[C@@H](CCC(=O)O)C(=O)N[C@@H](CC(C)C)C(=O)N[C@@H](CCC(N)=O)C(=O)N[C@H](C(=O)N[C@@H](Cc1ccc(O)cc1)C(=O)N1CCC[C@H]1C(=O)N1CCC[C@H]1C(=O)N[C@H](C(=O)N[C@@H](CCC(=O)O)C(=O)N[C@H](C(=O)NCC(=O)N[C@@H](CO)C(=O)NCC(=O)N[C@H](C(=O)N[C@@H](Cc1ccc(O)cc1)C(N)=O)[C@@H](C)O)[C@@H](C)O)[C@@H](C)O)[C@@H](C)O)[C@@H](C)O)[C@@H](C)O` [compound 128, [N-terminal(C20 diacid-gGlu), des1, 4G, 9T, 15Q, 21Q, 23Y, 25P, 30S, 31G, 32T, 33Y]mimylin] ({C20 diacid-γGlu}-ASGLSTATLGRLSQELHELQTYPPTETGSGTY-NH2), the Solubility entry in data set [1] (pH 3.0), in data set [1] (pH 5.0), in data set [1] (pH 6.0), in data set [1] (pH 6.5), in data set [1] (pH 7.0) and in data set [1] (pH 7.5) was “≧200 μM” throughout. The Solubility entry in data set [1] (pH 8.0) was “≧200 μM”. In data set [1] (pH 4.0), the solubility at 18 h stood at 25 µM (≈ 95.5 µg/mL). In addition, the IC50 in data set [2] was 0.028 nM.
On to `CC(C)C[C@H](NC(=O)[C@H](C)NC(=O)[C@H](C)NC(=O)[C@@H](NC(=O)[C@H](CO)NC(=O)[C@H](CC(C)C)NC(=O)[C@H](CCC(=O)O)NC(=O)[C@H](CO)NC(=O)[C@H](C)NC(=O)CC[C@H](NC(=O)CCCCCCCCCCCCCCCCCCC(=O)O)C(=O)O)[C@@H](C)O)C(=O)NCC(=O)N[C@@H](CCCNC(=N)N)C(=O)N[C@@H](CC(C)C)C(=O)N[C@@H](CO)C(=O)N[C@H](CCC(=O)O)C(=O)N[C@@H](CCC(=O)O)C(=O)N[C@@H](CC(C)C)C(=O)N[C@@H](Cc1cnc[nH]1)C(=O)N[C@@H](CCC(=O)O)C(=O)N[C@@H](CC(C)C)C(=O)N[C@@H](C)C(=O)N[C@H](C(=O)N[C@@H](CC(C)C)C(=O)N1CCC[C@H]1C(=O)N[C@@H](CCCNC(=N)N)C(=O)N[C@H](C(=O)N[C@@H](CCC(=O)O)C(=O)N[C@H](C(=O)NCC(=O)N[C@@H](CO)C(=O)NCC(=O)N[C@@H](CO)C(=O)N1CCC[C@H]1C(N)=O)[C@@H](C)O)[C@@H](C)O)[C@@H](C)O` [compound 67, [N-terminal(C20 diacid-gGlu), des1, 15e, 30S, 31G]mimylin] ({C20 diacid-γGlu}-ASELSTAALGRLS[dE]ELHELATLPRTETGSGSP-NH2), for which the Solubility entry in data set [1] (pH 3.0), in data set [1] (pH 4.0), in data set [1] (pH 5.0), in data set [1] (pH 6.0), in data set [1] (pH 6.5) and in data set [1] (pH 7.0) was “≧200 μM” each time. Also, the Solubility result in data set [1] (pH 7.5) and in data set [1] (pH 8.0) was “≧200 μM” each time. Besides, the IC50 in data set [2] amounted to 0.017 nM.
With `CC(C)C[C@H](NC(=O)[C@H](C)NC(=O)[C@H](C)NC(=O)[C@@H](NC(=O)[C@H](CO)NC(=O)[C@H](CC(C)C)NC(=O)[C@H](CCC(=O)O)NC(=O)[C@H](CO)NC(=O)[C@H](C)NC(=O)CCCCCCCCCCCCCCCCC(=O)O)[C@@H](C)O)C(=O)NCC(=O)N[C@@H](CCCNC(=N)N)C(=O)N[C@@H](CC(C)C)C(=O)N[C@@H](CO)C(=O)N[C@@H](C)C(=O)N[C@@H](CCC(=O)O)C(=O)N[C@@H](CC(C)C)C(=O)N[C@@H](Cc1cnc[nH]1)C(=O)N[C@@H](CCC(=O)O)C(=O)N[C@@H](CC(C)C)C(=O)N[C@@H](C)C(=O)N[C@H](C(=O)N[C@@H](CC(C)C)C(=O)N1CCC[C@H]1C(=O)N[C@@H](CCCNC(=N)N)C(=O)N[C@H](C(=O)N[C@@H](CCC(=O)O)C(=O)N[C@H](C(=O)NCC(=O)N[C@@H](CO)C(=O)NCC(=O)N[C@@H](CO)C(=O)N1CCC[C@H]1C(N)=O)[C@@H](C)O)[C@@H](C)O)[C@@H](C)O` [compound 48, [N-terminal(C18 diacid), des1, 30S, 31G]mimylin] ({C18 diacid}-ASELSTAALGRLSAELHELATLPRTETGSGSP-NH2), the Solubility entry in data set [1] (pH 3.0), in data set [1] (pH 4.0), in data set [1] (pH 5.0), in data set [1] (pH 6.0), in data set [1] (pH 6.5) and in data set [1] (pH 7.0) was “≧200 μM” each time. For the same molecule, the Solubility entry in data set [1] (pH 7.5) and in data set [1] (pH 8.0) was “≧200 μM” each time. Further, in data set [2], the IC50 worked out at 0.013 nM.
Take `CC(C)C[C@H](NC(=O)[C@H](CO)NC(=O)[C@H](C)NC(=O)[C@@H](NC(=O)[C@H](CO)NC(=O)[C@H](CC(C)C)NC(=O)[C@H](CCC(=O)O)NC(=O)[C@H](CO)NC(=O)[C@H](C)NC(=O)CC[C@H](NC(=O)CCCCCCCCCCCCCCCCCCC(=O)O)C(=O)O)[C@@H](C)O)C(=O)NCC(=O)N[C@@H](CCCNC(=N)N)C(=O)N[C@@H](CC(C)C)C(=O)N[C@@H](CO)C(=O)N[C@@H](C)C(=O)N[C@@H](CCC(=O)O)C(=O)N[C@@H](CC(C)C)C(=O)N[C@@H](Cc1cnc[nH]1)C(=O)N[C@@H](CCC(=O)O)C(=O)N[C@@H](CC(C)C)C(=O)N[C@@H](CO)C(=O)N[C@H](C(=O)N[C@@H](Cc1ccc(O)cc1)C(=O)N1CCC[C@H]1C(=O)N[C@@H](CCCNC(=N)N)C(=O)N[C@H](C(=O)N[C@@H](CCC(=O)O)C(=O)N[C@H](C(=O)NCC(=O)N[C@@H](CO)C(=O)NCC(=O)N[C@@H](CO)C(=O)N[C@@H](Cc1ccc(O)cc1)C(N)=O)[C@@H](C)O)[C@@H](C)O)[C@@H](C)O` [compound 100, [N-terminal(C20 diacid-gGlu), des1, 9S, 21S, 23Y, 30S, 31G, 33Y]mimylin] ({C20 diacid-γGlu}-ASELSTASLGRLSAELHELSTYPRTETGSGSY-NH2): the Solubility result in data set [1] (pH 3.0), in data set [1] (pH 7.0), in data set [1] (pH 7.5) and in data set [1] (pH 8.0) was “≧200 μM” each time. Also, the solubility at 18 h in data set [1] (pH 5.0) turned out to be 1 µM (≈ 3.82 µg/mL); in data set [1] (pH 6.0), 63 µM (≈ 241 µg/mL); in data set [1] (pH 6.5), 180 µM (≈ 688 µg/mL). Further, the IC50 in data set [2] was 0.062 nM.
With `CC(C)C[C@H](NC(=O)[C@H](C)NC(=O)[C@H](C)NC(=O)[C@@H](NC(=O)[C@H](CO)NC(=O)[C@H](CC(C)C)NC(=O)[C@H](CCC(=O)O)NC(=O)[C@H](CO)NC(=O)[C@H](C)NC(=O)CC[C@H](NC(=O)CCCCCCCCCCCCCCCCCCC(=O)O)C(=O)O)[C@@H](C)O)C(=O)NCC(=O)N[C@@H](CCCNC(=N)N)C(=O)N[C@@H](CC(C)C)C(=O)N[C@@H](CO)C(=O)N[C@@H](C)C(=O)N[C@@H](CCC(=O)O)C(=O)N[C@@H](CC(C)C)C(=O)N[C@@H](Cc1cnc[nH]1)C(=O)N[C@@H](CCC(=O)O)C(=O)N[C@@H](CC(C)C)C(=O)N[C@@H](C)C(=O)N[C@H](C(=O)N[C@@H](CC(C)C)C(=O)N1CCC[C@H]1C(=O)N[C@@H](CCCNC(=N)N)C(=O)N[C@H](C(=O)N[C@@H](CCC(=O)O)C(=O)N[C@H](C(=O)NCC(=O)N[C@@H](CO)C(=O)NCC(=O)N[C@@H](CO)C(=O)N[C@@H](Cc1ccc(O)cc1)C(N)=O)[C@@H](C)O)[C@@H](C)O)[C@@H](C)O` [compound 59, [N-terminal(C20 diacid-gGlu), des1, 30S, 31G, 33Y]mimylin] ({C20 diacid-γGlu}-ASELSTAALGRLSAELHELATLPRTETGSGSY-NH2), the Solubility entry in data set [1] (pH 3.0), in data set [1] (pH 4.0), in data set [1] (pH 6.0), in data set [1] (pH 6.5), in data set [1] (pH 7.0) and in data set [1] (pH 7.5) was “≧200 μM” throughout. Also, the Solubility entry in data set [1] (pH 8.0) is “≧200 μM”. Moreover, in data set [1] (pH 5.0), the solubility at 18 h was determined as 73 µM (≈ 273 µg/mL). Besides, the IC50 in data set [2] came to 0.023 nM.
